How the values were obtained:
NF-κB = experiment: TNF-induced NF-κB activation by EMSA in A549, Jurkat and KBM-5 cells; format: cell-based, human; details: 50 μM, 4 hours, then 0.1 nM TNF 30 min
Protocol: (§1) NF-κB Activation: To determine NF-κB activation, EMSA was carried out as previously described (Chaturvedi et al., 2000). Briefly, nuclear extracts prepared from cells (2×10^6/ml) treated with TNF were incubated with ^32P-end-labeled 45-mer double-stranded NF-κB oligonucleotide (8 μg of protein with […] of DNA) from the human immunodeficiency virus long terminal repeat, 5′-[…] GGCGTGG-3′ (SEQ ID NO:1) (boldface indicates NF-κB binding sites), for 15 min at 37° C. The DNA-protein complex formed was separated from free oligonucleotide on 6.6% native polyacrylamide gels. A double-stranded mutated oligonucleotide, 5′-[…]-3′ (SEQ ID NO:2), was used to examine the specificity of binding of NF-κB to the DNA. The specificity of binding was also examined by competition with the unlabeled oligonucleotide. For supershift assays, nuclear extracts prepared from TNF-treated cells were incubated with antibodies against either the p50 or the p65 subunit of NF-κB for 30 min at room temperature before the complex was analyzed by EMSA. The dried gels were visualized, and radioactive bands were quantitated using a PHOSPHORIMAGER™ (Molecular Dynamics, Sunnyvale, Calif.) using IMAGEQUANT™ software.

IKK = experiment: Direct inhibition of immunoprecipitated IKK, kinase assay; format: biochemical, human; details: 50 μM; immune complex treated 30 min at 30° C.
Protocol: IKK Assay: To determine the effect of guggulsterone on TNF-induced IKK activation, IKK was analyzed by a method essentially as described previously (Shishodia et al., 2003). Briefly, IKK complex was precipitated from whole-cell extracts with antibody to IKKα and IKKβ, assayed in kinase assay using GST-IκBα (1-54) as a substrate, and resolved on 10% polyacrylamide gel; the radioactive bands were visualized using a PHOSPHORIMAGER™. To determine the total amounts of IKKα and IKKβ in each sample, 30 μg of the whole-cell extract protein was resolved on a 7.5% polyacrylamide gel and analyzed by Western blot using antibody against IKKα and IKKβ.

NF-κB proteins = molecular target: T1, NF-κB proteins (Homo sapiens, UniProt P19838+Q04206); experiment: DNA binding of NF-κB in nuclear extracts incubated with guggulsterone (EMSA); format: biochemical; details: nuclear extracts from TNF-activated H1299 cells treated with guggulsterone 4 hours at room temperature
T1 construct: endogenous in cells; nuclear extract
T1 sequence (Q04206 whole entry): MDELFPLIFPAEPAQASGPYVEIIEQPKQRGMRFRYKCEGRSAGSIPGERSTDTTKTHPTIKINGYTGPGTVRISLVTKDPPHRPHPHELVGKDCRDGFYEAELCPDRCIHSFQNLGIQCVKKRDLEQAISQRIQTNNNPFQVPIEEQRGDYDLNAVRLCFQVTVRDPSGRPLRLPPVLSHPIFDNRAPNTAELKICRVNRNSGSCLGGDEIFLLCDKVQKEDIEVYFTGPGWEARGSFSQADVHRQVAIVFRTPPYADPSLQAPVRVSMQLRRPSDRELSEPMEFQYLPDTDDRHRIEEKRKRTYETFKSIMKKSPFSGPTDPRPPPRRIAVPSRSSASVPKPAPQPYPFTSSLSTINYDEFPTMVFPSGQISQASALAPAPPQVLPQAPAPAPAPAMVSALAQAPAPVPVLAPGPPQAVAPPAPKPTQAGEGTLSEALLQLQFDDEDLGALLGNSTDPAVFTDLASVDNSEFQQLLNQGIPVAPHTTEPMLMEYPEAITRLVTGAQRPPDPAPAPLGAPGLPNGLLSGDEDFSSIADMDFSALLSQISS
T1 sequence (P19838 1-433 limits assumed): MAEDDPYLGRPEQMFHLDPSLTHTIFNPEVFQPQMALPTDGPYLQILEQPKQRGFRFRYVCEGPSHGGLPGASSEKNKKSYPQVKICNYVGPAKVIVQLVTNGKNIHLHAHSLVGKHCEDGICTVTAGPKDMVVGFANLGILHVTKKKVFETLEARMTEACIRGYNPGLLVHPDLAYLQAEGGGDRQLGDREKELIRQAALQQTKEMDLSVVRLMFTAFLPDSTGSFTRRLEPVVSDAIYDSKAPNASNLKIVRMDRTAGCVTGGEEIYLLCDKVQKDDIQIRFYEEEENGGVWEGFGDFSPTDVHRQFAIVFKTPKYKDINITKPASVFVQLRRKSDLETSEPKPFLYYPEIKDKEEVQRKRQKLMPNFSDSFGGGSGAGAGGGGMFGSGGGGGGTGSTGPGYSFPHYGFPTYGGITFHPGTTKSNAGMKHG
Protocol: as §1, with “software. […]” for “software.”

[1] = test system: caspase 8, cytochrome c, caspase 3, PARP; experiment: Caspase activation, cytochrome c release and PARP cleavage, Western blot; format: cell-based, human; details: U937; 10 μM
Protocol: Western blot analysis. Thirty to fifty micrograms of cytoplasmic, nuclear or whole cell protein was resolved on 10% SDS-PAGE gel, transferred to a nitrocellulose membrane, blocked with 5% non-fat milk, and probed with specific antibodies as per manufacturer's recommended protocol. The blots were washed, exposed to HRP-conjugated secondary antibodies for 1 h, and detected by ECL reagent (Amersham Pharmacia Biotechnology, Piscataway, N.J.). The bands were quantitated using a Personal Densitometer Scan v1.30 using Imagequant software version 3.3 (Molecular Dynamics).
Measurement of cytochrome c release. To determine the effect of guggulsterone on cytochrome c release, cells were treated with guggulsterone as indicated and then the cytosolic extracts were prepared as described (Yang, 1997). Briefly, the cells were washed with PBS, resuspended in the buffer containing 0.25 M sucrose, 30 mM Tris-HCl (pH 7.9), 1 mM EDTA, 1 mM PMSF, 2 mM sodium orthovanadate, 10 mM NaF, 2 μg/ml leupeptin, and 2 μg/ml aprotinin and then homogenized gently with a glass Dounce homogenizer for 20 strokes. The homogenates were centrifuged at 2000 rpm for 10 min to remove nuclei, and the supernatants were centrifuged at 14,000 rpm for 30 min to remove mitochondria and other insoluble fragments. The supernatants were again centrifuged as above to ensure complete removal of mitochondria. Protein ([…]) was subjected to 15% SDS-PAGE, and then Western blot analysis was performed using anti-cytochrome c antibody.
PARP cleavage assay. For detection of cleavage products of PARP, whole-cell extracts were prepared by subjecting guggulsterone-treated cells to lysis in lysis buffer (20 mM Tris, pH 7.4; 250 mM NaCl; 2 mM EDTA, pH 8.0; 0.1% Triton-X 100; 0.01 μg/ml aprotinin; 0.005 μg/ml leupeptin; 0.4 mM PMSF; and 4 mM NaVO4). Lysates were spun at 14000 rpm for 10 min to remove insoluble material, resolved by 10% SDS PAGE, and probed with PARP antibodies.

p65 = experiment: TNF-induced phosphorylation and nuclear translocation of p65; format: cell-based, human; details: H1299, 50 μM, 4 hours, 0.1 nM TNF
Protocol: Western Blot Analysis: To determine the effect of guggulsterone on TNF-dependent IκBα phosphorylation, IκBα degradation, p65 translocation and p65 phosphorylation, cytoplasmic extracts were prepared as previously described (Majumdar et al., 2001) from H1299 (2×10^6/ml) pretreated with 50 μM guggulsterone for 4 h and then exposed to 0.1 nM TNF for various times. Thirty micrograms of cytoplasmic protein was resolved on 10% SDS-PAGE gel, transferred to a nitrocellulose membrane, blocked with 5% non-fat milk, and probed with specific antibody against IκBα, posphorylated IκBα, p65 and phosphorylated p65. To determine the expression of cyclin D1, COX-2, MMP-9, clAP-1, xlAP, TRAF1, Bcl-2, Bfl-1, cFLIP, and survivin, whole-cell extracts were prepared from treated cells (2×10^6 cells in 2 ml medium), 30-50 μg protein was resolved on SDS-PAGE gel and probed by Western blot with specific antibodies as per manufacturer's recommended protocol. The blots were washed, exposed to HRP-conjugated secondary antibodies for 1 hour, and finally detected by ECL reagent (Amersham Pharmacia Biotech.). The bands were quantitated using a Personal Densitometer Scan v1.30 using IMAGEQUANT™ software version 3.3 (Molecular Dynamics).
Immunolocalization of NF-κB p65: The effect of guggulsterone on […] nuclear translocation of p65 was examined using an immunocytochemical method as described previously (Bharti et al., 2003). Stained slides were mounted with mounting medium (Sigma Chemical) and analyzed under an epifluorescence microscope (Labophot-2; Nikon, Tokyo, Japan). Images were captured using a PHOTOMETRICS COOLSNAP CF™ color camera (Nikon, Lewisville, Tex.) and METAMORPH™ version 4.6.5 software (Universal Imaging, Downingtown, Pa.).

`CC=C1C(=O)C[C@H]2[C@@H]3CCC4=CC(=O)CC[C@]4(C)[C@H]3CC[C@]12C` [guggulsterone, 4,17(20)-pregnadiene-3,16-dione] was tested, and the “TNF-induced NF-κB activation in A549, Jurkat and KBM-5 cells” value (NF-κB) was “completely inhibited this activation”, the “phosphorylation of GST IκBα by immunoprecipitated IKK (direct inhibition)” value (IKK) was “inhibited the phosphorylation of GST IκBα” and the “DNA-binding ability of NF-κB proteins” value (NF-κB proteins) was “did not modify the DNA-binding ability of NF-κB proteins”. For the same molecule, the “caspase 3 activation and PARP cleavage” value [1] was “activation of caspase 3 and PARP cleavage”, the “caspase 8 activation (receptor-mediated apoptosis)” value [1] was “activation of caspase 8” and the “mitochondrial cytochrome c release (non-receptor mediated apoptosis)” value [1] was “mitochondrial cytochrome c release”. The “TNF-induced nuclear translocation of p65, Western blot” value (p65) was “abolished the TNF-induced nuclear translocation of p65”, the “TNF-induced nuclear translocation of p65, immunocytochemistry” value (p65) was “abrogated the p65 translocation” and the “TNF-induced phosphorylation of p65” value (p65; Western blot) was “suppressed p65 phosphorylation almost completely”.

Source: patent US20060019907A1, “Guggulsterone: an inhibitor of nuclear factor - kappaB and IkappaBalpha kinase activation and uses thereof” (Research Development Foundation, priority 2004, published 2006)
